How the values were obtained:
[1] = system: total HDAC enzymes; assay: Activity of total HDAC enzymes during reprogramming; format: cell-based, human; details: during reprogramming (FIG. 19 left)
Protocol: The values shown on the graph are mean values. The data are expressed as mean±SD (n=3) (*P<0.01, **P<0.005, by t-test).
Next, whether the above-described results were results of the inhibition of HDAC enzyme by RSC-133 during reprogramming of human skin fibroblasts was examined. […] According to the experimental method shown in FIG. 21, the expression levels of HDAC-family proteins were measured, and as a result, it could be seen that the expression level of HDAC1 in the test group treated with RSC-133 was inhibited at 10 days after treatment with RSC-133 compared to that of the control group (the light panel of FIG. 19 and FIG. 21). It was reported that HDAC1 can occupy the Oct4, Sox2, Klf4 and c-Myc gene loci in embryonic stem cells and that the expression of pluripotency-specific marker genes in HDAC1-deleted embryonic stem cells is increased. Thus, it is believed that RSC-133 can inhibit the function of HDAC1 and increase the H3K9ace level to stimulate the reprogramming process.

[2] = system: human skin fibroblasts (hFFs); assay: Reprogramming of human skin fibroblasts, AP-positive colony count; format: cell-based
Protocol: In order to screen low-molecular-weight compounds that promote the production of reprogrammed stem cells, human fibroblasts were transduced with reprogramming viruses (Oct4, Sox2, Klf4, and c-Myc). After 5 days, the cells were seeded on Matrigel-coated plates, and then cultured in MEF-conditioned medium (CM) containing each of low-molecular-weight compounds until colonies having a morphology similar to that of human embryonic stem cells were formed. After 15 days, alkaline phosphatase (AP) activity was measured, and compounds that increased the efficiency of reprogramming compared to that of a control group were selected. […] The values shown on the graph are mean values. The data are expressed as mean±SD (n=3).
For production of iPSC, human skin fibroblasts (hFFs) and mouse embryonic fibroblasts (MEFs) were seeded on gelatin-coated 6-well plates at a concentration of 1×10^5 cells per well at one day before transfection and were transfected with virus in the presence of polybrene (8 μg/ml). At 5 days after the transfection, hFFs or MEFs were collected by trypsin treatment and seeded again on Matrigel-coated 6-well plates at a concentration of 5 to 6×10^4 cells per well in order to perform experiments in feeder-free conditions. The medium was replaced with MEF-CM medium containing 10 ng/ml of bFGF. MEF-CM was prepared as γ-irradiated MEF according to a known method (Xu C. Nat Biotechnol 19, 971-974), and […] bFGF was added to MEF-CM. The medium was replaced at 2-day intervals. At 20 days after the transfection, hESC-like colonies were collected and transferred to 12-well plates having MEFs as feeder cells, and then continuously cultured using the hESC culture method described in Example 2.
The OSKM reprogramming factor virus was produced according to the method of Example 3. In order to screen low-molecular-weight compounds that increase the efficiency of reprogramming, hFFs and mouse embryonic fibroblasts (OG2-MEF; hemizygous for the Oct4-GFP transgene) were seeded on gelatin-coated 6-well plates at a concentration of 1×10^5 cells at one day before transfection, and then transfected with virus in the presence of polybrene (8 μg/ml). At 5 days after the transfection, hFFs or MEFs were collected by trypsin treatment and seeded again on Matrigel- or gelatin-coated 12-well plates at a concentration of 3.5×10^4 cells per well in order to perform experiments under feeder-free conditions. The medium was replaced with 10 ng/ml bFGF-containing MEF-CM or mouse embryonic stem cell culture medium, and then the prepared low-molecular-weight compounds that are trans-3-indoleacrylic based compounds were added at various concentrations. The culture medium containing each of the low-molecular-weight compounds was replaced at 2-day intervals. At 15 days after the transfection, the number of either colonies showing AP activity or colonies expressing endogenous Oct4 GFP fluorescence was measured to determine the efficiency of reprogramming.
ALP staining was performed using a commercial ALP kit (Sigma) according to the manufacturer's instruction. Images of ALP-positive cells were recorded using HP Scanjet G4010. In addition, bight field images were obtained using an Olympus microscope (IX51, Olympus, Japan).
To discover low-molecular-weight compounds that involved in the reprogramming of human somatic cells, reprogramming regulators of human skin fibroblasts were investigated by analog library screening of thirty selected novel trans-3-indoleacrylic acid-based compounds. Human skin fibroblasts were transfected with OSKM reprogramming virus, and after 5 days, the cells were seeded on Matrigel-coated 12-well plates and incubated in MEF-conditioned medium (CM) containing each of the low-molecular-weight compounds until colonies having a morphology similar to that of human embryonic stem cells were formed.

[3] = system: H3K9ace; assay: H3K9 acetylation during reprogramming (immunocytochemistry, Western blot); format: cell-based, human
Protocol: The left panel is a set of photographs showing the results obtained by inducing the reprogramming of human skin fibroblasts, culturing the cells for 10 days in the presence or absence of RSC-133, and then analyzing the cells by immunocytochemistry using monoclonal antibodies for H3K9ace and an undifferentiation marker (Nanog) (scale bar=200 μm). […] H3 protein was used as an internal control.
For immunostaining, cells were seeded on Matrigel-coated 4-well Lab-Tek chamber slides (Nunc, Naperville, Ill.) and cultured for 5 days under the indicated conditions. The cells were fixed in 4% paraformaldehyde at room temperature for 15 minutes, and then washed with PBS/0.2% BSA. Next, the cells were passed through PBS/0.2% BSA/0.1% Triton X-100 for 15 minutes, and then incubated with 4% normal donkey serum (Molecular Probes, Eugene, Oreg., USA) in PBS/0.2% BSA at room temperature for 1 hour. The cells were diluted with PBS/0.2% BSA, and then reacted with primary antibody at 4° C. for 2 hours. After washing, the cells were reacted with FITC- or Alexa594-conjugated secondary antibody (Invitrogen) in PBS/0.2% BSA at room temperature for 1 hour. The cells were counter-stained with 10 μg/ml DAPI.
Most of various low-molecular-weight compounds known to be involved in the reprogramming process are involved genome methylation patterns, histone acetylation patterns or major signaling mechanisms. […]

## NC(=O)c1cccc(NC(=O)/C=C/c2c[nH]c3ccccc23)c1 [RSC-133, 3-[3-(1H-indol-3-yl)-acrylamido]-benzamide]
[1]
  activity of total HDAC enzymes: slightly inhibited
[2]; 0, 0.1, 1, 5, 10 and 20 μM tested
  concentration that increases the efficiency of reprogramming to the highest level: 10 µM
[2]; 20 μM (FIG. 8)
  efficiency of reprogramming at 20 μM versus 10 μM: did not increase
[2]; 5% O2, compared to control group (FIG. 4)
  efficiency of reprogramming, hypoxic conditions: showed the effect of increasing the efficiency of reprogramming of human skin fibroblasts
[2]; 21% O2, compared to control group (FIG. 4)
  efficiency of reprogramming, normal conditions: showed the effect of increasing the efficiency of reprogramming of human skin fibroblasts
[2]; OSKM, MEF-CM, after 15 days, compared to control group (FIG. 3)
  efficiency of reprogramming (alkaline phosphatase activity): increased the efficiency of reprogramming of human skin fibroblasts
[2]; RSC 133 10 μM, AP-positive colonies, OSKM (FIG. 2b)
  effect on the promotion of reprogramming of human cells relative to AZA, VPA, TSA and SB431542: 1.5-3.3 times
[2]; treatment concentration of up to 10 μM, AP-positive colonies (FIG. 8)
  concentration dependence of the increase in efficiency of reprogramming: concentration-dependent manner
[2]; treatment throughout the reprogramming process (condition 1 in FIG. 10)
  efficiency of reprogramming, continuous treatment: increased to the highest level
[3]; H3 as internal control (FIG. 18 right)
  H3K9ace level by Western blot: The same results were also obtained
[3]; cultured 10 days in presence or absence of RSC-133 (FIG. 18 left)
  ratio of undifferentiated cells having a high H3K9ace level (immunocytochemistry): higher in the test group treated with RSC-133 than in the control group

From patent publication US9587225B2, “Low-molecular-compound for improving production, maintenance and proliferation of pluripotent stem cells, composition comprising the same, and culture method” (KOREA RESEARCH INSTITUTE OF BIOSCIENCE AND BIOTECHNOLOGY, priority 2012, dated 2017)
